Test: xn = mol fraction of the nth substance listed
Details: 100 kPa

CC(=O)[O-].CC[n+]1ccn(C)c1 + O
Details	electrical conductivity [S/m]	speed of sound [m/s]
293.15 K, x1 = 0.105	–	1942
293.15 K, x1 = 0.1988	–	1959
293.15 K, x1 = 0.2003	1.59	–
293.15 K, x1 = 0.3952	0.833	–
293.15 K, x1 = 0.4445	–	1852
293.15 K, x1 = 0.5602	–	1776
293.15 K, x1 = 0.5984	0.49	–
293.15 K, x1 = 0.7375	–	1778
293.15 K, x1 = 0.8521	–	1762
293.15 K, x1 = 0.9481	0.228	–
293.15 K, x2 = 0.0174	–	1753
298.15 K, x1 = 0.4445	–	1839
298.15 K, x1 = 0.5602	–	1764
298.15 K, x1 = 0.7375	–	1765
298.15 K, x1 = 0.8521	–	1749
298.15 K, x1 = 0.9481	0.301	–
298.15 K, x1 = 1	0.299	1740
298.15 K, x2 = 0.0174	–	1740
303.15 K, x1 = 0.105	–	1917
303.15 K, x1 = 0.1988	–	1932
303.15 K, x1 = 0.3952	1.28	–
303.15 K, x1 = 0.4445	–	1827
303.15 K, x1 = 0.5602	–	1753
303.15 K, x1 = 0.5984	0.776	–
303.15 K, x1 = 0.7375	–	1753
303.15 K, x1 = 0.8521	–	1736
303.15 K, x1 = 0.9481	0.392	–
303.15 K, x1 = 1	0.391	1727
303.15 K, x2 = 0.0174	–	1726
313.15 K, x1 = 0.1988	–	1904
313.15 K, x1 = 0.2003	3.32	–
313.15 K, x1 = 0.3952	1.84	–
313.15 K, x1 = 0.4445	–	1803
313.15 K, x1 = 0.5602	–	1729
313.15 K, x1 = 0.5984	1.16	–
313.15 K, x1 = 0.7375	–	1729
313.15 K, x1 = 0.7987	0.819	–
313.15 K, x1 = 0.8521	–	1712
313.15 K, x1 = 0.9481	0.627	–
313.15 K, x1 = 1	0.625	1701
313.15 K, x2 = 0.0174	–	1701
323.15 K, x1 = 0.105	–	1864
323.15 K, x1 = 0.2003	4.45	–
323.15 K, x1 = 0.3952	2.52	–
323.15 K, x1 = 0.4445	–	1779
323.15 K, x1 = 0.5602	–	1707
323.15 K, x1 = 0.7375	–	1705
323.15 K, x1 = 0.7987	1.19	–
323.15 K, x1 = 0.8521	–	1687
323.15 K, x1 = 0.9481	0.934	–
323.15 K, x1 = 1	0.929	1676
323.15 K, x2 = 0.0174	–	1676
333.15 K, x1 = 0.105	–	1846
333.15 K, x1 = 0.1988	–	1848
333.15 K, x1 = 0.2003	5.75	–
333.15 K, x1 = 0.3952	3.32	–
333.15 K, x1 = 0.5602	–	1690
333.15 K, x1 = 0.5984	2.19	–
333.15 K, x1 = 0.7375	–	1682
333.15 K, x1 = 0.7987	1.64	–
333.15 K, x1 = 0.8521	–	1664
343.15 K, x1 = 0.105	–	1809
343.15 K, x1 = 0.4445	–	1731
343.15 K, x1 = 0.5602	–	1668
343.15 K, x1 = 0.7375	–	1659
343.15 K, x1 = 0.9481	1.76	–
343.15 K, x2 = 0.0174	–	1629
353.15 K, x1 = 0.9481	2.28	–
353.15 K, x1 = 1	2.28	–

O + CC(=O)[O-].CC[n+]1ccn(C)c1
x2 = 0
Details	speed of sound [m/s]
293.15 K	1485
298.15 K	1499
303.15 K	1511
333.15 K	1551
343.15 K	1554

Reference: a compilation of properties of binary mixtures (doi:10.1016/j.molliq.2019.111925)
